For the assay, the system named is endosomal acidification in Vero cells. Nature of the assay: cells. It is filed as cell-based. As to conditions: for inhibition at 40 µM: Chlorocebus sabaeus, read-out: Percent Inhibition (%) of endosomal acidification. Here is the method: Inhibition of endosomal acidification was measured using LysoTracker Red DND-99 (ThermoFisher). […] Data were plotted using Prism 9 (GraphPad).

Where [1] appears, read: Vero cells, 40 μM, singlet (n=1).

Structures can show the parent of a compound that is named as a salt. Where two headings read alike, the source gives them in different places.

Turning to `CN(C)CCCN1c2ccccc2CCc2ccccc21` [IMIPRAMINE HYDROCHLORIDE], the inhibition (commonly the drop in the measured response relative to a control, in per cent) at 40 µM under setting [1] amounted to 54%. On the same count and under the same terms, as for `CC1Cc2ccccc2N1NC(=O)c1ccc(Cl)c(S(N)(=O)=O)c1` (stereo not drawn) [INDAPAMIDE], the figure is 101%. Take `CC1(C)C=Cc2c(c3c(c4c(=O)c(-c5ccc(O)c(O)c5)coc24)OC(C)(C)CC3)O1` [ISOPOMIFERIN]: under setting [1], the “Percent Inhibition (%) of endosomal acidification” value (shortened to “Percent Inhibition (%)”) is listed as 85%.

With `Clc1ccc(C(Cn2ccnc2)OCc2c(Cl)cccc2Cl)c(Cl)c1` (stereo not drawn) [I[…]], the inhibition at 40 µM under setting [1] was 79%. As for `C#C[C@]1(O)CC[C@H]2[C@@H]3CCC4=CCCC[C@@H]4[C@H]3CC[C@@]21C` [LYNESTRENOL], the inhibition at 40 µM under setting [1] was 86%. Consider `CNCCCC12CCC(c3ccccc31)c1ccccc12` [MAPROTILINE HYDROCHLORIDE], for which, under “Vero”, the inhibition at 40 µM is 60%. As for `CN1CCc2c(c3ccccc3n2Cc2ccccc2)C1.CN1CCc2c(c3ccccc3n2Cc2ccccc2)C1.O=S(=O)(O)c1cccc2c(S(=O)(=O)O)cccc12` [MEBHYDROLIN NAPHTHALENESULFONATE], under setting [1], the “Percent Inhibition (%)” value is 52%. `OC(c1cc(C(F)(F)F)nc2c(C(F)(F)F)cccc12)C1CCCCN1` (stereo not drawn) [MEFLOQUINE]: under setting [1], the inhibition at 40 µM amounted to 64%. Same read-out and setting: as for `CN1C[C@H](CNC(=O)OCc2ccccc2)C[C@@H]2c3cccc4c3c(cn4C)C[C@H]21` [METERGOLINE], the figure is 53%. Take `COC(=O)CC[C@@H](C)[C@H]1CC[C@H]2[C@@H]3CC[C@@H]4C[C@H](O)CC[C@]4(C)[C@H]3C[C@H](O)[C@]12C` [METHYL DEOXYCHOLATE]: the inhibition at 40 µM under setting [1] was 63%. As for `Cc1cc(C(C)(C)CC(C)(C)C)ccc1OCCOCC[N+](C)(C)Cc1ccccc1.[Cl-]` [METHYLBENZETHONIUM CHLORIDE], under setting [1], the “Percent Inhibition (%)” value amounted to 85%. On to `CN(C)c1ccc2nc3ccc(=[N+](C)C)cc-3sc2c1` [METHYLENE BLUE], for which the inhibition at 40 µM under setting [1] came out at 85%. Take `Clc1ccc(COC(Cn2ccnc2)c2ccc(Cl)cc2Cl)c(Cl)c1` (stereo not drawn) [MICONAZOLE NITRATE]: the inhibition at 40 µM under setting [1] came out at 81%. On the same count and under the same terms, the figure for `O=C1c2c(O)ccc(O)c2C(=O)c2c(NCCNCCO)ccc(NCCNCCO)c21` [MITOXANTRONE HYDROCHLORIDE] is 80%; for `OC(CNCC(O)C1CCc2cc(F)ccc2O1)C1CCc2cc(F)ccc2O1` (stereo not drawn) [NEBIVOLOL HYDROCHLORIDE] it is 52%. For `CCCCCCCCCc1ccc(OCCOCCOCCOCCOCCOCCOCCOCCOCCO)cc1` [NONOXYNOL-9], the inhibition at 40 µM under setting [1] is 91%. On the same count and under the same terms, the figure for `Fc1ccc([C@@H]2CCNC[C@H]2COc2ccc3c(c2)OCO3)cc1` [PAROXETINE HYDROCHLORIDE] is 65%.

As for `OC1(c2ccc(Cl)c(C(F)(F)F)c2)CCN(CCCC(c2ccc(F)cc2)c2ccc(F)cc2)CC1` [PENFLURIDOL], the inhibition at 40 µM under setting [1] stood at 61%. On the same count and under the same terms, the figure for `C1CCC(C(CC2CCCCN2)C2CCCCC2)CC1` (stereo not drawn) [PERHEXILINE MALEATE] is 92%; for `OCCN1CCN(CCCN2c3ccccc3Sc3ccc(Cl)cc32)CC1` [PERPHENAZINE] it is 93%. Turning to `O=c1[nH]c2ccccc2n1C1CCN(CCCC(c2ccc(F)cc2)c2ccc(F)cc2)CC1` [PIMOZIDE], the inhibition at 40 µM under setting [1] was 54%. Consider `CC(=O)c1ccc2c(c1)N(CCCN1CCC(CCO)CC1)c1ccccc1S2` [PIPERACETAZINE], for which the inhibition at 40 µM under setting [1] amounted to 78%. On to `CN1CCC(=C2c3ccccc3CCc3sccc32)CC1.O=C(O)CC(O)C(=O)O` [PIZOTYLINE MALATE], for which, under setting [1], the “Percent Inhibition (%)” value is 50%. As for `COc1cc2nc(N3CCN(C(=O)c4ccco4)CC3)nc(N)c2cc1OC` [PRAZOSIN HYDROCHLORIDE], the inhibition at 40 µM under setting [1] turned out to be 76%. On the same count and under the same terms, the figure for `COc1cc(NC(C)CCCN)c2ncccc2c1` (stereo not drawn) [PRIMAQUINE PHOSPHATE] is 68%. In the case of `CCCC(C(=O)OCCN(CC)CC)(c1ccccc1)c1ccccc1` [PROADIFEN HYDROCHLORIDE], under setting [1], the inhibition at 40 µM was determined as 59%. On the same count and under the same terms, as for `CN1CCN(CCCN2c3ccccc3Sc3ccc(Cl)cc32)CC1` [PROCHLORPERAZINE EDISYLATE], the figure is 73%. Take `Nc1ccc2cc3ccc(N)cc3nc2c1` [PROFLAVINE HEMISULFATE]: the inhibition at 40 µM under setting [1] was 54%. Consider `CN(C)CCCN1c2ccccc2Sc2ccccc21` [PROMAZINE HYDROCHLORIDE], for which, under setting [1], the inhibition at 40 µM is 75%.

`CC(CN1c2ccccc2Sc2ccccc21)N(C)C` (stereo not drawn) [PROMETHAZINE HYDROCHLORIDE]: the inhibition at 40 µM under setting [1] was determined as 56%. `COc1ccc2nc3cc(Cl)ccc3c(Nc3cc(CN4CCCC4)c(O)c(CN4CCCC4)c3)c2n1.O=P(O)(O)O.O=P(O)(O)O.O=P(O)(O)O.O=P(O)(O)O` [PYRONARIDINE TETRAPHOSPHATE]: the “Percent Inhibition (%)” value under setting [1] came out at 70%. Take `CCN(CC)CCCC(C)Nc1c2ccc(Cl)cc2nc2ccc(OC)cc12` (stereo not drawn) [QUINACRINE HYDROCHLORIDE]: the inhibition at 40 µM under setting [1] was determined as 63%. `O=C(Nc1ccc(Oc2ccc(Cl)cc2)c(Cl)c1)c1cc(I)cc(I)c1O` [RAFOXANIDE]: under setting [1], the inhibition at 40 µM turned out to be 68%.

With `O=C(c1ccc(OCCN2CCCCC2)cc1)c1c(-c2ccc(O)cc2)sc2cc(O)ccc12` [RALOXIFENE HYDROCHLORIDE], under setting [1], the inhibition at 40 µM amounted to 56%. In the case of `Cl.N=C(N/N=C/c1ccc(Cl)cc1)N/N=C/c1ccc(Cl)cc1` [ROBENIDINE HYDROCHLORIDE], the “Percent Inhibition (%)” value under setting [1] is given as 76%. Turning to `CCC(C)(C)C(=O)O[C@H]1C[C@@H](C)C=C2C=C[C@H](C)[C@H](CC[C@@H]3C[C@@H](O)CC(=O)O3)[C@H]21` [SIMVASTATIN], the inhibition at 40 µM under setting [1] worked out at 84%. Still for that read-out and setting: the figure for `[H]/N=C(/N)N[C@H]1[C@H](O)[C@@H](O)[C@H](O[C@@H]2O[C@@H](C)[C@](O)(C=O)[C@H]2O[C@@H]2O[C@@H](CO)[C@H](O)[C@@H](O)[C@@H]2NC)[C@@H](N/C(N)=N\[H])[C@@H]1O` [STREPTOMYCIN SULFATE] is 101%. In the case of `CCCCCCCCNC(C)C(O)c1ccc(SC(C)C)cc1` (stereo not drawn) [SULOCTIDIL], under setting [1], the inhibition at 40 µM was 94%. With `CC/C(=C(\c1ccccc1)c1ccc(OCCN(C)C)cc1)c1ccccc1` [TAMOXIFEN CITRATE], the inhibition at 40 µM under setting [1] turned out to be 82%. The same measure, in the same setting: the figure for `CC(C)N1CCN(c2ccc(OCC3COC(Cn4cncn4)(c4ccc(Cl)cc4Cl)O3)cc2)CC1` (stereo not drawn) [TERCONAZOLE] is 64%; for `CCC(=O)O[C@H]1CC[C@H]2[C@@H]3CCC4=CC(=O)CC[C@]4(C)[C@H]3CC[C@]12C` [TESTOSTERONE PROPIONATE] it is 64%; for `COc1ccc2cc1Oc1ccc(cc1)C[C@H]1c3cc(c(OC)cc3CCN1C)Oc1c(OC)c(OC)cc3c1[C@H](C2)N(C)CC3` [TETRANDRINE] it is 50%. `C[CH2][Hg][S]c1ccccc1C(=O)[O-].[Na+]` [THIMEROSAL]: the “Percent Inhibition (%)” value (40 µM) stood at 81%.

In the case of `CSc1ccc2c(c1)N(CCC1CCCCN1C)c1ccccc1S2` (stereo not drawn) [THIORIDAZINE HYDROCHLORIDE], under “Vero”, the inhibition at 40 µM came out at 92%. For `CN1CCN(CC/C=C2/c3ccccc3Sc3ccc(S(=O)(=O)N(C)C)cc32)CC1` [THIOTHIXENE], the inhibition at 40 µM under setting [1] is 80%. For `CCN(CC)CCOc1ccc2c(c1)C(=O)c1cc(OCCN(CC)CC)ccc1-2` [TILORONE], the inhibition at 40 µM under setting [1] turned out to be 59%. Consider `Clc1ccc(C(Cn2ccnc2)OCc2ccsc2Cl)c(Cl)c1` (stereo not drawn) [TIOCONAZOLE], for which, where the note is “Vero”, the inhibition at 40 µM amounted to 94%. With `Cc1cc2nc3ccc(N(C)C)cc3[s+]c2cc1N` [TOLONIUM CHLORIDE], the inhibition at 40 µM under setting [1] is 84%.

Values taken from publication PMC9295568, “Dual Inhibition of Vacuolar-ATPase and TMPRSS2 Is Required for Complete Blockade of SARS-CoV-2 Entry into Cells” (Antimicrobial Agents and Chemotherapy, 2022).
